Experimental data published in US20230109839A1, “THERAPEUTIC AGENT FOR TAUOPATHIES” (SUMITOMO PHARMA CO., LTD., priority 2020, published 2023).
Entries after “also recorded” stand apart in the source; their conditions may differ. Like-named read-outs stand apart in the source and are kept apart here.

How the values were obtained:
[1] = system: phosphorylated tau oligomer; experiment: Evaluation of phosphorylated tau oligomers in brain of APP-Tg mice, Western blotting (Test 4); format: in vivo, mouse; conditions: for Reducing effect of phosphorylated tau oligomer: 7-10 days, with ABT 1 mg/g-food; for reducing effect of tau oligomer: with food for 7-10 days, ABT 1 mg/g-food depending on the compound, brain, anti-oligomerized tau antibody TOMA-1
Method: Test 4: Evaluation of Phosphorylated Tau Oligomers Using APP-Tg Mice
This test is a test to quantify the oligomer of phosphorylated tau in the brain to evaluate the action of a compound. […] The APP-Tg mice used herein were prepared by the method described in Test 3.
The test compound administered with food to APP-Tg mice for 7-10 days. At this time, in order to increase the blood concentration of the test compound, ABT was used in combination with a mixed diet of 1 mg/g-food depending on the compound. After the administration, the brain was collected, and the protein is extracted from the collected brain using TBS (Tris Buffered Saline) or sarcosyl, and then SDS-PAGE (sodium dodecyl sulfate-polyacrylamide gel electrophoresis) of the soluble or insoluble fraction was performed. After that, Western blotting was performed using an anti-oligomerized tau antibody (Anti-Tau, oligomeric, clone TOMA-1), and the effect of the test compound was evaluated by quantifying the band amount of the phosphorylated tau oligomer.
The reducing effect of phosphorylated tau oligomer was calculated by the following formula, and from the calculated values, the results were defined as follows: 0-25%: +, 25-50%: ++, 50-75%: +++, and 75-100%: ++++. The significant difference from the vehicle-administered group was determined using the Student t-test. For the band amount, the value corrected by the β-actin band amount was used.
Reducing effect of phosphorylated tau oligomer={(band amount of oligomerized tau in vehicle-administered group−band amount of oligomerized tau in test compound-administered group)/band amount of oligomerized tau in vehicle-administered group}×100

human Nav1.1 = biological target: T1, human Nav1.1 (Homo sapiens, UniProt P35498); experiment: Amplification of Nav1.1-derived voltage-gated sodium current (Nav1.1 current), automated patch clamp (Test 1); format: cell-based; conditions: read-out: Nav1.1 current amplification rate (%)
T1 construct: host or cells: HEK293
How it was run: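 Compound-induced change in ramp-evoked sodium current peak and AUC was expressed as 100×post/pre ratio minus 100. Recordings used automated patch clamp in voltage-clamp mode on a stable human Nav1.1 HEK293 line, including only cells above 500 pA. Compounds were delivered in extracellular fluid containing 1% DMSO.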

APP-Tg mouse = experiment: Evaluation of the cognitive function by novel object recognition test (NORT) in APP-Tg mice (Test 3); format: in vivo; parameters: key to Discrimination index: (novel − known search time)/(novel + known search time); conditions: for improvement of cognitive function (NORT), summary of the above results / improvement of cognitive function (NORT): APP-Tg mice; for improvement of cognitive function (NORT), summary of the above results: alone, with Elacridar or with ABT depending on the compound; for improvement of cognitive function (NORT): test compound and ABT (1 mg/g-food) administered with food for 10 days; for Discrimination index: APP-Tg mouse, with ABT 1 mg/g-food
Method: Test 3: Evaluation of the Cognitive Function by Novel Object Recognition Test (Hereinafter, Also Referred to as “NORT”)
The present test is for evaluating the improvement of cognitive function with the test compounds. When an APP-Tg mouse which is an AD (Alzheimer's disease) model mouse is evaluated by NORT, the memory for a familiar object decreases depending on the time interval between the first trial run (training) and the second trial run (test). For example, if the first trial run is done and 3 hours later the second one is done, there is no difference in the searching times between novel object and known object for the APP-Tg mouse, compared with a healthy mouse. Thus, the APP-Tg mouse suffers from significant amnesia.
The APP-Tg mouse used herein was prepared by constructing an expression cassette linked to human APP751 isoform to which Swedish (K670N/M671L) and Indiana (V717F) mutation were introduced at downstream of mouse Thy-1 promoter, then injecting the expression cassette into a mouse fertilized egg, and transplanting it to a host mouse. The prepared mouse presents with intracerebral AB accumulation and cognitive dysfunction from early on, and thus the mouse can be used for the evaluation of cognitive function. APP-Tg mouse has been also reported in Non-patent literature 6.
To the prepared APP-Tg mouse, the test compound was administered, and then the first trial run was done for the mouse 30 minutes after the intraperitoneal administration or after 10 days of mixed diet administration. The second trial run was done 3 hours after the first trial run, and the searching times between novel object and known object in the second trial were evaluated. The discrimination index was calculated from the searching time for novel object and known object in the second trial run, and the improvement of cognitive function of the test compound was confirmed by comparing the discrimination index with the test compound-unadministered group as an index of the cognitive function. The discrimination index was calculated by the following formula.
Discrimination index={(Searching time for novel object)−(Searching time for known object)}/{(Searching time for novel object)+(Searching time for known object)}
The present test can be also done with a combination with Elacridar (Tokyo Chemical Industry Co., Ltd.). Elacridar can inhibit P-gp and BCRP which are excretion transporters expressed in the blood-brain barrier and thereby Elacridar has the effect of improving the transferability of the test compound to the brain. Eracridal was orally administered to APP-Tg mice at 100 mg/kg 2 hours before the first trial run, and then the test compound was intraperitoneally administered to the mice 30 minutes before the first trial run according to the above method. And, the improvement of cognitive function was evaluated. The significant difference from the vehicle-administered group was determined using the parametric Dunnett multiple comparison test.
And, the present test can be also done with a combination with ABT (1-aminobenzotriazole) (Tokyo Chemical Industry Co., Ltd.). ABT has the effect of improving the blood concentration of the test compound by inhibiting CYP and suppressing metabolism. The test compound and ABT (1 mg/g-food) were administered with food to APP-Tg mice for 10 days, and then the improvement of cognitive function was evaluated according to the above method. The significant difference from the vehicle-administered group was determined using the parametric Dunnett multiple comparison test.

[2] = HEK293, concentration for evaluation 1 μM, HEK293 stably expressing human Nav1.1
[3] = HEK293, Concentration for evaluation 1 μM, HEK293 cell line stably expressing human Nav1.1

Structure (SMILES) | Reducing effect of phosphorylated tau oligomer ([1]; dose 2 mg/g-food) | reducing effect of tau oligomer [1] | Reducing effect of phosphorylated tau oligomer ([1]; dose 0.2 mg/g-food) | improvement of cognitive function (NORT), summary of the above results (APP-Tg mouse) | improvement of cognitive function (NORT) (APP-Tg mouse) | Discrimination index (APP-Tg mouse; dose 0.2 mg/g-food for 10 days) | Discrimination index (APP-Tg mouse; dose 2 mg/g-food for 10 days) | activation at 1 µM (human Nav1.1; [3]) | further results
Cc1ncccc1N1CCN(C(=O)Cn2nc(C3=CCC(C)CC3)ccc2=O)CC1 (centres unmarked) [Example 410, 6-(4-methylcyclohex-1-en-1-yl)-2-{2-[4-(2-methylpyridin-3-yl)piperazin-1-yl]-2-oxoethyl}pyridazin-3 (2H)-one] | + (0-25%: +) | some reducing effect of tau oligomer; also recorded: strong reducing effect of tau oligomer | – | – | – | – | – | – | Reducing effect of phosphorylated tau oligomer ([1]; dose 0.6 mg/g-food): +++ (50-75%: +++); activation at 3 µM (human Nav1.1; HEK293, Concentration for evaluation 3 μM, HEK293 cell line stably expressing human Nav1.1): 66%
CN(c1ncc2cnn(CC(=O)Nc3ccc4ncnn4c3)c2n1)C1CC(C)(C)C1 [Example 821, 2-{6-[(3,3-dimethylcyclobutyl)(methyl)amino]-1H-pyrazolo[3,4-d]pyrimidin-1-yl}-N-([1,2,4]triazolo[1,5-a]pyridin-6-yl)acetamide] | + (0-25%: +) | – | + (0-25%: +) | some improvement of cognitive function | some improvement of cognitive function; also recorded: strong improvement of cognitive function | 0.30 | 0.37 | – | activation at 1 µM (human Nav1.1; [2]): 116%
N#Cc1ccc(NC(=O)Cn2ncc3ncc(N4CCC5(CC5)C(F)(F)C4)nc32)cn1 [Example 746, N-(6-cyanopyridin-3-yl)-2-[6-(4,4-difluoro-6-azaspiro[2.5]octan-6-yl)-1H-pyrazolo[3,4-b]pyrazin-1-yl]acetamide] | ++ (25-50%: ++) | some reducing effect of tau oligomer | ++ (25-50%: ++) | some improvement of cognitive function | some improvement of cognitive function | 0.28 | 0.38 | 102% | –
CN(c1ccc(=O)n(CC(=O)N2CCc3c(N4CCOCC4)cccc32)n1)C1CCCC1 [Example 565, 6-[cyclopentyl(methyl)amino]-2-{2-[4-(morpholin-4-yl)-2,3-dihydro-1H-indol-1-yl]-2-oxoethyl}pyridazin-3(2H)-one] | – | some reducing effect of tau oligomer; also recorded: strong reducing effect of tau oligomer | – | – | – | – | – | – | Reducing effect of phosphorylated tau oligomer ([1]; dose 0.5 mg/g-food): +++ (50-75%: +++); Reducing effect of phosphorylated tau oligomer ([1]; dose 4.5 mg/g-food): ++ (25-50%: ++)
Cc1cc(NC(=O)Cn2nc(C3=CCC(C)CC3)ccc2=O)cc(C)n1 (centres unmarked) [Example 364, N-(2,6-dimethylpyridin-4-yl)-2-[3-(4-methylcyclohex-1-en-1-yl)-6-oxopyridazin-1(6H)-yl]acetamide] | + (0-25%: +) | – | – | – | – | – | – | 25% | Reducing effect of phosphorylated tau oligomer ([1]; dose 0.6 mg/g-food): + (0-25%: +)
CN(CC1CCC1)c1ncc2cnn(CC(=O)Nc3ccc4ncnn4c3)c2n1 [Example 819, 2-{6-[(cyclobutylmethyl)(methyl)amino]-1H-pyrazolo[3,4-d]pyrimidin-1-yl}-N-([1,2,4]triazolo[1,5-a]pyridin-6-yl)acetamide] | + (0-25%: +) | some reducing effect of tau oligomer | ++ (25-50%: ++) | some improvement of cognitive function | some improvement of cognitive function; also recorded: strong improvement of cognitive function | 0.47 | 0.52 | – | activation at 1 µM (human Nav1.1; [2]): 88%
CN(c1cnc2cnn(CC(=O)Nc3ccc(C#N)nc3)c2n1)C1CC2(CC2)C1 [Example 753, N-(6-cyanopyridin-3-yl)-2-{6-[methyl(spiro[2.3]hexan-5-yl)amino]-1H-pyrazolo[3,4-b]pyrazin-1-yl}acetamide] | – | some reducing effect of tau oligomer | – | – | – | – | – | 106% | Reducing effect of phosphorylated tau oligomer ([1]; dose 0.1 mg/g-food): ++ (25-50%: ++); Reducing effect of phosphorylated tau oligomer ([1]; dose 4 mg/g-food): ++ (25-50%: ++); Discrimination index (APP-Tg mouse; dose 0.1 mg/g-food for 10 days): 0.21; Discrimination index (APP-Tg mouse; dose 4 mg/g-food for 10 days): 0.28
CN(c1cnc2cnn(CC(=O)Nc3ccn4ncnc4c3)c2n1)C1CC2(CC2)C1 [Example 630, 2-{6-[methyl(spiro[2.3]hexan-5-yl)amino]-1H-pyrazolo[3,4-b]pyrazin-1-yl}-N-([1,2,4]triazolo[1,5-a]pyridin-7-yl)acetamide] | ++ (25-50%: ++) | some reducing effect of tau oligomer | ++ (25-50%: ++) | some improvement of cognitive function | some improvement of cognitive function | 0.04 | 0.45 | 120% | –
